System: HLA Class I molecules
Experiment: HLA class I binding stability assay (pMHC-I complex dissociation, 125I-labeled β2m, scintillation counts)
Design: species or system human
Conditions: allele A02.01; 37° C.

`CC[C@H](C)[C@H](NC(=O)[C@@H]1CCCN1C(=O)[C@H](CCCNC(=N)N)NC(=O)[C@H](Cc1c[nH]c2ccccc12)NC(=O)[C@H](CC(N)=O)NC(=O)[C@H](CCSC)NC(=O)CNC(=O)CNC(=O)[C@H](CCSC)NC(=O)[C@@H](N)CS)C(=O)O` and `CC[C@H](C)[C@H](NC(=O)[C@@H](NC(=O)[C@H](CC(C)C)NC(=O)[C@@H](NC(=O)[C@@H]1CCCN1C(=O)[C@H](CCCNC(=N)N)NC(=O)[C@H](Cc1c[nH]c2ccccc12)NC(=O)[C@H](CC(N)=O)NC(=O)[C@H](CCSC)NC(=O)CN)[C@@H](C)CC)[C@@H](C)O)C(=O)O` are within 1.5-fold of each other in “Stability (T1/2 (h))” value: 0.4 h for the first, 0.5 h for the second.

Compared with `CC(C)C[C@H](NC(=O)[C@H](CO)NC(=O)[C@H](CS)NC(=O)[C@H](CCC(=O)O)NC(=O)[C@H](Cc1c[nH]c2ccccc12)NC(=O)[C@H](CC(C)C)NC(=O)[C@H](C)NC(=O)[C@H](CC(C)C)NC(=O)[C@H](CC(C)C)NC(=O)[C@@H](N)Cc1ccccc1)C(=O)O`, `CC(C)C[C@H](NC(=O)[C@H](CO)NC(=O)[C@H](CS)NC(=O)[C@H](CCC(=O)O)NC(=O)[C@H](Cc1c[nH]c2ccccc12)NC(=O)[C@H](CC(C)C)NC(=O)[C@H](C)NC(=O)[C@H](CC(C)C)NC(=O)[C@@H](N)CC(C)C)C(=O)O` is 2.7-fold lower in “Stability (T1/2 (h))” value: 10.8 h for the first, 4 h for the second.

First: CC(C)C[C@H](NC(=O)[C@@H](N)Cc1ccccc1)C(=O)N[C@@H](CCC(N)=O)C(=O)N[C@@H](CCC(=O)O)C(=O)N[C@@H](CCC(N)=O)C(=O)N[C@@H](Cc1ccc(O)cc1)C(=O)N[C@@H](Cc1c[nH]cn1)C(=O)N[C@@H](CCC(=O)O)C(=O)N[C@@H](C)C(=O)O
Second: CC[C@H](C)[C@H](NC(=O)[C@H](CCCCN)NC(=O)[C@H](CO)NC(=O)[C@H](CCC(=O)O)NC(=O)[C@H](C)NC(=O)[C@H](CCCCN)NC(=O)[C@H](CC(C)C)NC(=O)[C@H](Cc1ccccc1)NC(=O)[C@H](CCSC)NC(=O)[C@@H](N)Cc1ccc(O)cc1)C(=O)O
The “Stability (T1/2 (h))” value of the first is 16-fold higher: 9.5 h for the first, 0.6 h for the second.

Going from `CSCC[C@H](NC(=O)[C@H](CC(C)C)NC(=O)[C@H](CO)NC(=O)[C@H](CC(C)C)NC(=O)[C@@H]1CCCN1C(=O)[C@H](CCC(N)=O)NC(=O)[C@H](CCSC)NC(=O)[C@H](CCC(N)=O)NC(=O)[C@@H](N)Cc1ccccc1)C(=O)O` to `CC[C@H](C)[C@H](NC(=O)[C@@H]1CCCN1C(=O)[C@H](CC(C)C)NC(=O)[C@H](Cc1ccccc1)NC(=O)[C@H](CC(C)C)NC(=O)[C@H](CO)NC(=O)[C@H](CC(=O)O)NC(=O)[C@@H](NC(=O)[C@H](CC(C)C)NC(=O)[C@@H](N)CCSC)[C@@H](C)O)C(=O)O`, the “Stability (T1/2 (h))” value rises from 0.3 h to 1 h (3.3-fold).

`CC[C@H](C)[C@H](NC(=O)[C@@H](NC(=O)[C@H](CC(C)C)NC(=O)[C@@H](NC(=O)[C@@H]1CCCN1C(=O)[C@H](CCCNC(=N)N)NC(=O)[C@H](CCC(N)=O)NC(=O)[C@H](CC(N)=O)NC(=O)[C@H](CCSC)NC(=O)CN)[C@@H](C)CC)[C@@H](C)O)C(=O)O` and `CC[C@H](C)[C@H](NC(=O)[C@@H](NC(=O)[C@H](CC(C)C)NC(=O)[C@@H](NC(=O)[C@@H]1CCCN1C(=O)[C@H](CCCNC(=N)N)NC(=O)[C@H](CCCNC(=N)N)NC(=O)[C@H](CC(N)=O)NC(=O)[C@H](CCSC)NC(=O)[C@@H](N)CO)[C@@H](C)CC)[C@@H](C)O)C(=O)O` are within 1.5-fold of each other in “Stability (T1/2 (h))” value: 0.4 h for the first, 0.3 h for the second.

Compared with `CSCC[C@H](NC(=O)[C@H](CC(C)C)NC(=O)[C@@H](N)CCCCN)C(=O)N[C@@H](CC(C)C)C(=O)N[C@@H](CC(C)C)C(=O)N[C@@H](CCCNC(=N)N)C(=O)N[C@@H](CC(C)C)C(=O)N[C@@H](CC(N)=O)C(=O)N[C@@H](CC(C)C)C(=O)O`, `CC(C)C[C@H](NC(=O)[C@H](CO)NC(=O)[C@H](CC(N)=O)NC(=O)[C@H](CS)NC(=O)[C@H](CCC(=O)O)NC(=O)[C@H](Cc1c[nH]cn1)NC(=O)[C@H](CC(C)C)NC(=O)[C@@H](NC(=O)[C@@H](N)CCC(N)=O)C(C)C)C(=O)O` is 34-fold lower in “Stability (T1/2 (h))” value: 16.9 h for the first, 0.5 h for the second.

`CC[C@H](C)[C@H](NC(=O)[C@H](Cc1ccc(O)cc1)NC(=O)[C@H](CC(C)C)NC(=O)[C@@H](N)CC(C)C)C(=O)N[C@H](C(=O)N[C@@H](C)C(=O)N[C@@H](Cc1ccccc1)C(=O)N[C@@H](Cc1ccccc1)C(=O)N[C@@H](CC(C)C)C(=O)O)[C@@H](C)O` and `CSCC[C@H](NC(=O)[C@@H](NC(=O)[C@H](Cc1ccc(O)cc1)NC(=O)[C@H](C)NC(=O)[C@H](CCSC)NC(=O)[C@@H](NC(=O)[C@@H](N)Cc1ccc(O)cc1)C(C)C)C(C)C)C(=O)N[C@@H](C)C(=O)NCC(=O)N[C@H](C(=O)O)C(C)C` are within 1.5-fold of each other in “Stability (T1/2 (h))” value: 17 h for the first, 20.9 h for the second.

First: CC[C@H](C)[C@H](NC(=O)[C@H](CO)NC(=O)[C@H](Cc1c[nH]c2ccccc12)NC(=O)[C@H](Cc1c[nH]cn1)NC(=O)[C@H](C)NC(=O)[C@@H]1CCCN1C(=O)[C@H](CCSC)NC(=O)[C@H](CC(C)C)NC(=O)[C@H](CO)NC(=O)[C@@H](N)CC(C)C)C(=O)O
Second: CC[C@H](C)[C@H](NC(=O)[C@H](CO)NC(=O)[C@H](Cc1c[nH]c2ccccc12)NC(=O)[C@H](Cc1c[nH]cn1)NC(=O)[C@H](C)NC(=O)[C@@H]1CCCN1C(=O)[C@H](CCSC)NC(=O)[C@H](CC(C)C)NC(=O)[C@@H](N)CO)C(=O)O
The “Stability (T1/2 (h))” value of the first is 12-fold lower: 0.4 h for the first, 5 h for the second.

First: CC(C)C[C@H](N)C(=O)N[C@H](C(=O)N[C@H](C(=O)N[C@H](C(=O)NCC(=O)N[C@@H](C)C(=O)N[C@H](C(=O)NCC(=O)N[C@H](C(=O)O)C(C)C)C(C)C)C(C)C)C(C)C)C(C)C
Second: CSCC[C@H](NC(=O)[C@@H](NC(=O)[C@H](Cc1ccc(O)cc1)NC(=O)[C@H](C)NC(=O)[C@H](CCSC)NC(=O)[C@@H](NC(=O)[C@@H](N)Cc1ccc(O)cc1)C(C)C)C(C)C)C(=O)N[C@@H](C)C(=O)NCC(=O)O
The “Stability (T1/2 (h))” value of the first is 4.2-fold lower: 0.6 h for the first, 2.5 h for the second.

Going from `CC(C)C[C@H](NC(=O)[C@@H]1CCCN1C(=O)[C@H](CS)NC(=O)[C@H](CC(C)C)NC(=O)[C@H](Cc1c[nH]cn1)NC(=O)[C@H](CC(N)=O)NC(=O)CNC(=O)[C@H](CC(C)C)NC(=O)[C@@H](N)CO)C(=O)O` to `CC[C@H](C)[C@H](NC(=O)[C@H](CCC(N)=O)NC(=O)[C@@H](N)CO)C(=O)N[C@@H](CCSC)C(=O)N[C@@H](CO)C(=O)N[C@@H](CC(C)C)C(=O)N[C@@H](Cc1c[nH]c2ccccc12)C(=O)NCC(=O)N[C@@H](CC(C)C)C(=O)O`, the “Stability (T1/2 (h))” value falls from 3.5 h to 1 h (3.5-fold).

Same assay, conditions: allele A02.01; pMHC-I dissociation at 37° C.

Going from `CC[C@H](C)[C@H](NC(=O)[C@H](CC(C)C)NC(=O)[C@@H]1CCCN1C(=O)[C@H](Cc1ccccc1)NC(=O)[C@H](CC(C)C)NC(=O)[C@@H](N)CCC(=O)O)C(=O)N[C@@H](Cc1ccccc1)C(=O)N1CCC[C@H]1C(=O)N[C@@H](C)C(=O)O` to `CC[C@H](C)[C@H](NC(=O)[C@H](CC(C)C)NC(=O)[C@@H](N)CCC(N)=O)C(=O)N[C@@H](CCSC)C(=O)N[C@@H](CCC(N)=O)C(=O)N[C@@H](CC(C)C)C(=O)N[C@@H](CCSC)C(=O)N1CCC[C@H]1C(=O)N[C@@H](Cc1ccccc1)C(=O)O`, the “Stability (T1/2 (h))” value falls from 5.1 h to 0.3 h (17-fold).

`CC[C@H](C)[C@H](N)C(=O)N[C@@H](CCSC)C(=O)N[C@@H](CCC(N)=O)C(=O)N[C@@H](CC(C)C)C(=O)N[C@@H](CCSC)C(=O)N1CCC[C@H]1C(=O)N[C@@H](Cc1ccccc1)C(=O)NCC(=O)N[C@@H](CS)C(=O)N[C@@H](CC(C)C)C(=O)O` and `CSCC[C@H](NC(=O)[C@H](CC(C)C)NC(=O)[C@H](CCC(N)=O)NC(=O)[C@@H](N)CCSC)C(=O)N1CCC[C@H]1C(=O)N[C@@H](Cc1ccccc1)C(=O)NCC(=O)N[C@@H](CS)C(=O)N[C@@H](CC(C)C)C(=O)N[C@@H](CC(C)C)C(=O)O` are within 1.5-fold of each other in “Stability (T1/2 (h))” value: 0.5 h for the first, 0.4 h for the second.

Compared with `CC[C@H](C)[C@H](N)C(=O)N[C@@H](CCC(N)=O)C(=O)N[C@@H](CC(C)C)C(=O)N[C@@H](CCC(N)=O)C(=O)N[C@@H](CC(=O)O)C(=O)N[C@@H](CCCCN)C(=O)N[C@@H](Cc1ccccc1)C(=O)N[C@@H](CCC(=O)O)C(=O)N[C@@H](Cc1c[nH]cn1)C(=O)N[C@@H](CC(C)C)C(=O)O`, `CC(C)C[C@H](NC(=O)[C@H](Cc1c[nH]cn1)NC(=O)[C@H](CCC(=O)O)NC(=O)[C@H](Cc1ccccc1)NC(=O)[C@H](CCCCN)NC(=O)[C@H](CC(=O)O)NC(=O)[C@H](CCC(N)=O)NC(=O)[C@H](CC(C)C)NC(=O)[C@@H](N)CCC(N)=O)C(=O)O` is 3-fold higher in “Stability (T1/2 (h))” value: 0.2 h for the first, 0.6 h for the second.

`CSCC[C@H](NC(=O)[C@H](CC(C)C)NC(=O)[C@H](CCC(N)=O)NC(=O)[C@@H](N)CCSC)C(=O)N1CCC[C@H]1C(=O)N[C@@H](Cc1ccccc1)C(=O)NCC(=O)N[C@@H](CS)C(=O)N[C@@H](CC(C)C)C(=O)O` and `CC[C@H](C)[C@H](NC(=O)[C@H](Cc1ccccc1)NC(=O)[C@H](CCCNC(=N)N)NC(=O)[C@@H]1CCCN1C(=O)[C@H](CC(C)C)NC(=O)[C@@H](N)CO)C(=O)N[C@@H](CC(C)C)C(=O)N[C@@H](CCSC)C(=O)N[C@@H](CCC(=O)O)C(=O)N[C@@H](CC(C)C)C(=O)O` are within 1.5-fold of each other in “Stability (T1/2 (h))” value: 0.4 h for the first, 0.5 h for the second.

First: CSCC[C@H](NC(=O)[C@H](CCC(=O)O)NC(=O)[C@H](CCCNC(=N)N)NC(=O)[C@H](CC(C)C)NC(=O)[C@H](Cc1ccc(O)cc1)NC(=O)[C@H](CC(N)=O)NC(=O)[C@H](CC(C)C)NC(=O)[C@H](CC(C)C)NC(=O)[C@@H](N)CO)C(=O)O
Second: CC(C)[C@H](NC(=O)[C@H](CO)NC(=O)[C@H](Cc1ccccc1)NC(=O)[C@H](Cc1ccccc1)NC(=O)[C@H](Cc1ccccc1)NC(=O)[C@H](Cc1ccccc1)NC(=O)[C@H](CS)NC(=O)[C@@H](NC(=O)[C@@H](N)CO)C(C)C)C(=O)O
The “Stability (T1/2 (h))” value of the first is 3.1-fold lower: 3 h for the first, 9.4 h for the second.

Same assay, conditions: allele B07.02; 37° C.

With `CSCC[C@H](NC(=O)[C@H](CC(C)C)NC(=O)[C@@H](N)CCCCN)C(=O)N[C@@H](CC(C)C)C(=O)N[C@@H](CC(C)C)C(=O)N[C@@H](CCCNC(=N)N)C(=O)N[C@@H](CC(C)C)C(=O)N[C@@H](CC(N)=O)C(=O)N[C@@H](CC(C)C)C(=O)O` the “Stability (T1/2 (h))” value was 1.5 h.

Same assay, conditions: allele B07.02; pMHC-I dissociation at 37° C.

For `CC[C@H](C)[C@H](NC(=O)[C@H](Cc1ccccc1)NC(=O)[C@H](CCCNC(=N)N)NC(=O)[C@@H]1CCCN1C(=O)[C@H](CC(C)C)NC(=O)[C@@H](N)CO)C(=O)N[C@@H](CC(C)C)C(=O)N[C@@H](CCSC)C(=O)N[C@@H](CCC(=O)O)C(=O)N[C@@H](CC(C)C)C(=O)O`, the “Stability (T1/2 (h))” value was 0.4 h.

Same assay, conditions: allele B08.01; 37° C.

First: CC(C)C[C@H](NC(=O)[C@@H]1CCCN1C(=O)[C@H](CS)NC(=O)[C@H](CC(C)C)NC(=O)[C@H](Cc1c[nH]cn1)NC(=O)[C@H](CC(N)=O)NC(=O)CNC(=O)[C@H](CC(C)C)NC(=O)[C@@H](N)CO)C(=O)O
Second: CSCC[C@H](NC(=O)[C@@H](NC(=O)[C@H](Cc1ccc(O)cc1)NC(=O)[C@H](C)NC(=O)[C@H](CCSC)NC(=O)[C@@H](NC(=O)[C@@H](N)Cc1ccc(O)cc1)C(C)C)C(C)C)C(=O)N[C@@H](C)C(=O)NCC(=O)O
The “Stability (T1/2 (h))” value of the first is 2.4-fold lower: 0.5 h for the first, 1.2 h for the second.

With `CC[C@H](C)[C@H](NC(=O)[C@H](CCCCN)NC(=O)[C@H](CO)NC(=O)[C@H](CCC(=O)O)NC(=O)[C@H](C)NC(=O)[C@H](CCCCN)NC(=O)[C@H](CC(C)C)NC(=O)[C@H](Cc1ccccc1)NC(=O)[C@H](CCSC)NC(=O)[C@@H](N)Cc1ccc(O)cc1)C(=O)O` the “Stability (T1/2 (h))” value was 0.4 h.
